According to patent publication US10526287B2, “LSD1 inhibitors and uses thereof” (Constellation Pharmaceuticals, Inc., priority 2015, dated 2020):
Structures can show the parent of a compound that is named as a salt. Where two headings read alike, the source gives them in different places.

Biological target: LSD1 (Homo sapiens, UniProt O60341)
Assay: Biochemical assay for LSD1 activity (LSD1 demethylase TR-FRET)
Conditions: biotinylated H3K4me1 peptide, 50 minutes at room temperature, TR-FRET, read-out: LSD1_Pep_TR-FRET_1.0 (IC50 T50)

SMILES	IC50 (Table 6) [nM]	also measured
CC(=Cc1ccc(C#N)cc1)C1CC1N[C@H]1CC[C@@H](N)CC1 (relative stereo) [Compound 131, 4-(2-(2-(((cis)-4-aminocyclohexyl)amino)cyclopropyl)prop-1-en-1-yl)benzonitrile Dihydrochloride]	> 10000	–
C/C(=C\c1ccccc1)[C@@H]1C[C@H]1NC1CCN(CCC(=O)N(C)C)CC1 (racemic) [Compound 198, N,N-dimethyl-3-(4-(((trans)-2-((E)-1-phenylprop-1-en-2-yl)cyclopropyl)amino)piperidin-1-yl)propanamide Dihydrochloride]	< 100	–
CC/C(=C\c1ccccc1)[C@@H]1C[C@H]1NC1CC2(C1)CN(Cc1ccc(C(=O)O)cn1)C2 (single isomer, unassigned) [Compound 249, 6-((6-(((1R,2S or 1S,2R)-2-(E)-1-phenylbut-1-en-2-yl)cyclopropyl)amino)-2-azaspiro[3.3]heptan-2-yl)methyl)nicotinic Acid Bis Trifluoroacetate]	–	IC50 (Table 7): < 100 nM
CC/C(=C\c1ccccc1)[C@@H]1C[C@H]1NCC1(C)CN(Cc2ccc(C(=O)O)cc2)C1 (racemic) [Compound 235]	–	IC50 (Table 7): < 100 nM
CC/C(=C\c1ccccc1)[C@@H]1C[C@H]1NC1CC2(C1)CN(Cc1ccc(C(=O)O)nc1)C2 (racemic) [Compound 231]	–	IC50 (Table 7): < 100 nM
CC/C(=C\c1ccccc1)[C@@H]1C[C@H]1NC1CCN(Cc2ccc(C(=O)O)cc2)CC1 (racemic) [Compound 128, 4-((4-(((trans)-2-((E)-1-phenylbut-1-en-2-yl)cyclopropyl)amino)piperidin-1-yl)methyl)benzoic acid bis-trifluoroacetic acid salt]	< 100	–
CC(C)/C(=C\c1ccccc1)[C@@H]1C[C@H]1NC1CCNCC1 (racemic) [Compound 277, N-((trans)-2-((E)-3-methyl-1-phenylbut-1-en-2-yl)cyclopropyl)piperidin-4-amine Dihydrochloride]	< 100	–
C/C(=C\c1ccccc1)[C@@H]1C[C@H]1N[C@H]1CC[C@H](NCc2ccc(C(=O)O)cc2)CC1 (single isomer, unassigned) [Compound 150, 4-((((trans)-4-(((trans)-2-((E)-1-phenylprop-1-en-2-yl)cyclopropyl)amino)cyclohexyl)amino)methyl)benzoic acid bis(trifluoroacetic acid) salt]	< 100	–
CC/C(=C\c1ccccc1)[C@@H]1C[C@H]1NC1CCC(NCc2ccc(C(=O)O)nc2)CC1 (mixture of isomers) [Compound 224, 5-((((trans)-4-(((trans)-2-((E)-1-phenylbut-1-en-2-yl)cyclopropyl)amino)cyclohexyl)amino)methyl)picolinic acid]	< 100	–
C/C(=C\c1ccccc1)[C@@H]1C[C@H]1N[C@H]1CC[C@@H](NCCC#N)CC1 (single isomer, unassigned) [Compound 156, 3-(((cis)-4-(((trans)-2-((E)-1-phenylprop-1-en-2-yl)cyclopropyl)amino)cyclohexyl)amino)propanenitrile bis(trifluoroacetic acid) salt]	< 100	–
COCC/C(=C\c1ccccc1)[C@@H]1C[C@H]1NC1CCC(NCc2ccc(C(=O)O)nc2)CC1 (mixture of isomers) [Compound 185, 5-((((trans)-4-(((trans)-2-((E)-4-methoxy-1-phenylbut-1-en-2-yl)cyclopropyl)amino)cyclohexyl)amino)methyl)picolinic Acid bis(trifluoroacetic Acid) Salt]	< 100	–
CC/C(=C\c1ccccc1)[C@@H]1C[C@H]1NC1CC2(C1)CN(Cc1ccc(C(=O)O)cc1)C2 (single isomer, unassigned) [Compound 250]	–	IC50 (Table 7): < 100 nM
O=C(O)CN1CCC(CNC2CC2/C=C/c2ccccc2)CC1 (stereo not shown) [Compound 111, (E)-3-(4-(((2-styrylcyclopropyl)amino)methyl)piperidin-1-yl)acetic acid]	–	IC50 (Table 5): < 100 nM
C/C(=C\c1ccccc1)[C@@H]1C[C@H]1N[C@H]1CC[C@@H](NCCCC(=O)O)CC1 (racemic) [Compound 165, 4-(((cis)-4-(((trans)-2-((E)-1-phenylprop-1-en-2-yl)cyclopropyl)amino)cyclohexyl)amino)butanoic Acid bis(trifluoroacetic Acid) Salt]	< 100	–
CC/C(=C\c1ccccc1)[C@@H]1C[C@H]1NC1CC2(C1)CN(Cc1ccc(C(=O)O)c(C)c1)C2 (single isomer, unassigned) [Compound 255]	–	IC50 (Table 7): < 100 nM
CC/C(=C\c1ccccc1)[C@@H]1C[C@H]1NCCC(C)(C)N (racemic) [Compound 240]	–	IC50 (Table 7): < 100 nM

SMILES	IC50 (Table 6) [nM]	also measured
C/C(=C\c1ccccc1)[C@@H]1C[C@H]1NC1CCN(Cc2ccc(C(=O)O)cc2)CC1 [compound 192]	100 to 1000	–
O=C(O)CCN1CCC(CNC2CC2/C=C/c2ccccc2)CC1 (stereo not shown) [Compound 105, (E)-3-(4-(((2-styrylcyclopropyl)amino)methyl)piperidin-1-yl)propanoic acid]	–	IC50 (Table 5): 100 to 1000 nM
CC/C(=C\c1ccccc1)[C@@H]1C[C@H]1N[C@H]1CC[C@H](N(C)CCC(=O)O)CC1 (racemic) [Compound 212, 3-(methyl((trans)-4-(((trans)-2-((E)-1-phenylbut-1-en-2-yl)cyclopropyl)amino)cyclohexyl)amino)propanoic Acid Dihydrochloride]	< 100	–
CC/C(=C\c1ccccc1)[C@@H]1C[C@H]1NC1CC2(CCN(CCC(=O)O)CC2)C1 (racemic) [Compound 225, 3-(2-(((trans)-2-((E)-1-phenylbut-1-en-2-yl)cyclopropyl)amino)-7-azaspiro[3.5]nonan-7-yl)propanoic Acid Bis Trifluoroacetate]	–	IC50 (Table 7): < 100 nM
CC/C(=C\c1ccccc1)[C@@H]1C[C@H]1NC[C@H]1C[C@H](NCC(C)(C)C(=O)O)C1 (racemic) [Compound 233]	–	IC50 (Table 7): < 100 nM
CC/C(=C\c1ccccc1)[C@@H]1C[C@H]1N[C@H]1CC[C@H](NCc2ccc(C(=O)O)cc2)CC1 (racemic) [Compound 218, 4-((((trans)-4-(((trans)-2-((E)-1-phenylbut-1-en-2-yl)cyclopropyl)amino)cyclohexyl)amino)methyl)benzoic Acid Dihydrochloride]	< 100	–
C/C(=C\c1ccccc1)[C@@H]1C[C@H]1NC1CCN(Cc2ccc(C(N)=O)cc2)CC1 (racemic) [Compound 137, 4-((4-(((trans)-2-((E)-1-phenylprop-1-en-2-yl)cyclopropyl)amino)piperidin-1-yl)methyl)benzamide dihydrochloride]	< 100	–
O=C(O)c1ccc(CN2CCC(CNC3CC3/C=C/c3ccccc3)CC2)cc1 (stereo not shown) [Compound 101, (E)-4-((4-(((2-styrylcyclopropypamino)methyl)piperidin-1-yl)methyl)benzoic Acid Dihydrochloride]	–	IC50 (Table 5): 100 to 1000 nM
C/C(=C\c1ccccc1)[C@@H]1C[C@H]1N[C@H]1CC[C@H](NCCCC(=O)O)CC1 (racemic) [Compound 164, 4-(((trans)-4-(((trans)-2-((E)-1-phenylprop-1-en-2-yl)cyclopropyl)amino)cyclohexyl)amino)butanoic Acid bis(trifluoroacetic Acid) Salt]	< 100	–
CC(=Cc1ccc(C#N)cc1)C1CC1N[C@H]1CC[C@H](N)CC1 (relative stereo) [Compound 132, 4-(2-(2-(((trans)-4-aminocyclohexyl)amino)cyclopropyl)prop-1-en-1-yl)benzonitrile Dihydrochloride]	> 10000	–
CC/C(=C\c1ccccc1)[C@@H]1C[C@H]1NC1CC2(C1)CN(Cc1ccc(-c3nnn[nH]3)cc1)C2 (single isomer, unassigned) [Compound 252]	–	IC50 (Table 7): < 100 nM
C/C(=C\c1ccccc1)[C@@H]1C[C@H]1N[C@H]1CC[C@@H](NCC(C)(C)C(=O)O)CC1 (single isomer, unassigned) [Compound 149, 2,2-dimethyl-3-(((cis)-4-(((trans)-2-((E)-1-phenylprop-1-en-2-yl)cyclopropyl)amino)cyclohexyl)amino)propanoic acid bis(trifluoroacetic acid) salt]	< 100	–
C/C(=C\c1ccccc1)[C@@H]1C[C@H]1N[C@H]1CC[C@H](NCCC(=O)N2CCCC2)CC1 (single isomer, unassigned) [Compound 146, 3-(((trans)-4-(((trans)-2-((E)-1-phenylprop-1-en-2-yl)cyclopropyl)amino)cyclohexyl)amino)-1-(pyrrolidin-1-yl)propan-1-one bis(trifluoroacetic acid) salt]	< 100	–
CC/C(=C\c1ccccc1)[C@@H]1C[C@H]1N[C@H]1CC[C@@H](N)CC1 (racemic) [Compound 168, (cis)-N^1-((trans)-2-((E)-1-phenylbut-1-en-2-yl)cyclopropyl)cyclohexane-1,4-diamine Dihydrochloride]	< 100	–
C/C(=C\c1ccccc1)[C@@H]1C[C@H]1N[C@H]1CC[C@H](NCC(C)(C)C(=O)O)CC1 (single isomer, unassigned) [Compound 148, 2,2-dimethyl-3-(((trans)-4-(((trans)-2-((E)-1-phenylprop-1-en-2-yl)cyclopropyl)amino)cyclohexyl)amino)propanoic acid bis(trifluoroacetic acid) salt]	< 100	–
